Test results as given in US20120329761A1, “USE OF TIGECYCLINE FOR TREATMENT OF CANCER” (UNIVERSITY HEALTH NETWORK, priority 2010, published 2012).

Tested on: Cox-1, Cox-2, Cox-4, grp78, XIAP
Assay: Immunoblotting of mitochondrially and cytosolically translated proteins
Format: cell-based, human
Conditions: TEX, OCI-AML2 and two AML patients' cells, 2.5 μM and 5 μM
Description: FIG. 4. […] (A) Cells from TEX, OCI-AML2 and two primary AML patients were treated with increasing concentrations (2.5 μM and 5 μM) of tigecycline for 36 and 48 hours of tigecycline. Total proteins were extracted and analyzed by western blotting for Cox-1, Cox-2, Cox-4, grp78, XIAP, actin and tubulin. (B) TEX and AML patient cells were treated with increasing concentrations (2.5 μM and 5 μM) of tigecycline. Cox-1, Cox-2, and Cox-4 mRNA expression relative 18S was determined by quantitative RT-PCR. Data is shown as mean±SD. (C) TEX cells were treated with increasing concentrations of tigecycline and chloramphenicol (CAP) for 72 hours. Complex I, II and IV enzyme activity relative to citrate synthase activity was determined as described in materials and methods. (D) Cells from TEX, primary AML patients, and normal donors were treated with increasing concentrations of tigecycline. Mitochondrial membrane potential (Δψ) was determined by staining cells with JC-1 dye, and flow cytometry analysis (Red/Green ratio). Reactive oxygen species generation (ROS) was determined by staining with h2-DCFDA and Dihydroethidium (DHE).
Total cell lysates were prepared from cells as described previously^32. […] Protein concentrations were measured by the DC Protein assay. […]

## CN(C)c1cc(NC(=O)CNC(C)(C)C)c(O)c2c1C[C@H]1C[C@H]3[C@H](N(C)C)C(O)=C(C(N)=O)C(=O)[C@@]3(O)C(O)=C1C2=O [tigecycline]
  expression of nuclear-encoded proteins XIAP or grp78: did not alter
36 and 48 hours
  expression of Cox subunit proteins: preferential decrease of mitochondrially-translated subunits I and II, over nuclear-translated subunit IV
